Laboratory results as given in patent publication US20240254130A1, “SALT AND SOLID FORMS OF A KINASE INHIBITOR” (Blueprint Medicines Corporation, priority 2021, published 2024).
≈ marks a conversion by molar mass, not a printed value. Read-outs that look alike come from different tables or passages of the source.

What was measured:
[1] = Salt screen: stability on drying and humidity exposure, hygroscopicity; assay type: physicochemical
Description: A stock solution with concentration of 85 mg/mL was prepared in TFE. Stock solutions of fourteen different counter ions (e.g., benzenesulfonic acid, benzoic acid, phosphoric acid, sulfuric acid, citric acid, glucuronic acid, glutamic acid, hydrochloric acid, malic acid, methanesulfonic acid, Succinic acid, tartaric acid, toluenesulfonic acid, and acetic acid) were prepared in EtOH. 352 μL (30 mg) of the freebase solution was added to each vial. 1.1 and/or 2.2 equivalents of the appropriate counter ion stock solution were added to each vial. The vials were left to stir at 45° C. for two hours before being uncapped and left to evaporate at 40° C. with stirring overnight in atmosphere. The vials were then placed under active vacuum at 50° C. for 3 hours to dry thoroughly. Approximately, 20 volumes (600 μL) of screening solvent were then added to each vial, and the samples were heated to 45° C. with stirring (450 rpm). […] After two hours, the samples were left to stir at room temperature.
Crystalline salts were characterized and evaluated for viability based on melting point, crystallinity, stability on drying and humidity exposure, water solubility, polymorphism, and acceptability of counter-ion.

[2] = Phase 1 single and multiple ascending dose study (safety, tolerability, pharmacokinetics); assay type: in vivo, human; details: five SAD cohorts and three MAD cohorts
[3] = as above; assay type: in vivo, human
Description: Compound (I) was administered as the monophosphate salt. Screening of subjects occurred within 28 days prior to (first) dosing. Subjects participated in only 1 cohort in only 1 study part.
Part 1 (SAD): Six (6) cohorts of 8 subjects each (6 active and 2 placebo) were evaluated. […] The first cohort (Cohort S1) included a sentinel group (1 active and 1 placebo) which was dosed at least 24 hours before the remaining 6 subjects (5 active and 1 placebo). Dosing of the remaining 6 subjects in Cohort S1 was conducted following a safety evaluation of the sentinel group.
Blood samples were collected pre-dose on Day-1, on Day 2, and on Day 5 to measure pharmacodynamic (PD) biomarker (tryptase) concentration.
Part 2 (MAD): Four (4) cohorts of 8 subjects each (6 active and 2 placebo) were evaluated.
Plasma samples were collected pre-dose on Days 1-10 for PK assessment. Plasma samples were also collected through 24 hours post-dose on Day 1 and through 96 hours post-dose on Day 10 for PK assessment. Blood samples were collected pre-dose on Day 1, and pre-dose on Days 2, 5, and 9 to measure PD biomarker (tryptase) concentration. […] Safety was assessed according to incidence and severity of adverse events in recipients of Compound (I) as compared with placebo.

[4] = Solubility of Compound (I) free base in solvents at 50° C.; assay type: physicochemical; details: organic solvent or mixture
[5] = Brain penetration potential

Molecule	behaviour of solids upon humidification (high humidity) [1]	tolerability [2]	severity of adverse events ([3]; abdominal pain, decreased appetite, fatigue, headache, nausea, mostly not related to the drug)	increase in systemic exposure with dose ([3]; across SAD and MAD cohorts)	linearity of pharmacokinetics ([3]; across the dose ranges in SAD and MAD cohorts)	half-life ([3]; human, plasma, oral, healthy adult subjects, given as monophosphate salt, read-out: mean half-life (t1/2)) [h]	Vd/F ([3]; human, plasma, oral, healthy adult subjects, read-out: geometric mean Vz/F) [L]	Tmax ([3]; human, plasma, single oral doses 15-200 mg, fasting, healthy adult subjects, given as monophosphate salt, read-out: median Tmax) [h]	findings in laboratory or vital signs parameters ([3]; in vivo)	serious AEs ([3]; in vivo)	steady state expected to be reached ([3]; once-daily oral dosing) [days]	solubility ([4]; ACN:water (7:3 vol.), sample 82-2, read-out: Solubility (mg/mL) at 50° C.) [mg/mL]	solubility ([4]; t-BuOH, sample 83-1, read-out: Solubility (mg/mL) at 50° C.) [mg/mL]	solubility ([4]; t-BuOH:water (9:1 vol.), sample 83-2, read-out: Solubility (mg/mL) at 50° C.) [mg/mL]	brain penetration potential [5]
tosylate	deliquescing	–	–	–	–	–	–	–	–	–	–	–	–	–	–
C[C@](N)(c1ccc(F)cc1)c1cnc(N2CCN(c3ncnn4cc(-c5cnn(CCO)c5)cc34)CC2)nc1 [Compound (I), (S)-2-(4-(4-(4-(5-(1-amino-1-(4-fluorophenyl)ethyl)pyrimidin-2-yl)piperazin-1-yl)pyrrolo[1,2-f][1,2,4]triazin-6-yl)-1H-pyrazol-1-yl)ethanol]	–	well-tolerated	Only Grade 1 adverse events	dose-proportional increase	linear	20 to 28	753 to 973	1.5 to 6	no clinically relevant findings	No serious AEs were reported	≤ 7	8.6 (≈ 16.3 mM)	< 2.6	< 2.6	limited
